Measured values from patent US5292733A, “Cephalosporin compounds” (Lucky Limited, priority 1991, dated 1994).
≈ marks a conversion by molar mass, not a printed value.

What was measured:
Experiment in all cases: Antibacterial activity MIC, two-fold agar dilution
Assay type in all cases: cell-based
[1] = system: Escherichia coli ATCC 10536; details: ATCC10536, Muller-Hinton agar, 37° C., 20 hours
In short: (§1)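 Steps: prepare two-fold serial compound dilutions in Muller-Hinton agar; inoculate 2 μl of standard strain at 10^7 CFU per ml; incubate 20 h at 37° C.; record MIC.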

[2] = system: Serratia marcescens ATCC 27117; details: ATCC27117; Serratia marcescens ATCC 27117; Muller-Hinton agar, 37° C., 20 hours; read-out: Antibacterial Activity MIC
In short: as §1

[3] = system: Shigella sonnei ATCC 11060; details: ATCC11060, Muller-Hinton agar, 37° C., 20 hours
In short: as §1

[4] = system: Escherichia coli ATCC 25922; details: ATCC25922, Muller-Hinton agar, 37° C., 20 hours
In short: as §1

[5] = system: Bacillus cereus ATCC 11778; details: ATCC11778; Bacillus cereus ATCC 11778; Muller-Hinton agar, 37° C., 20 hours; read-out: Antibacterial Activity MIC
In short: as §1

[6] = system: Enterobacter aerogenes ATCC 29751; details: Klebsiella aerogenes, ATCC29751; Enterobacter aerogenes ATCC 29751; Muller-Hinton agar, 37° C., 20 hours; read-out: Antibacterial Activity MIC
In short: as §1

[7] = system: Pseudomonas aeruginosa ATCC 25619; details: ATCC25619; Pseudomonas aeruginosa ATCC 25619; Muller-Hinton agar, 37° C., 20 hours; read-out: Antibacterial Activity MIC
In short: as §1

[8] = system: Acinetobacter calcoaceticus ATCC 15473; details: ATCC15473; Acinetobacter calcoaceticus ATCC 15473; Muller-Hinton agar, 37° C., 20 hours; read-out: Antibacterial Activity MIC
In short: as §1

[9] = system: Citrobacter freundii ATCC 8090; details: ATCC8090; Citrobacter freundii ATCC 8090; Muller-Hinton agar, 37° C., 20 hours; read-out: Antibacterial Activity MIC
In short: as §1

[10] = system: Providencia rettgeri ATCC 9250; details: ATCC9250, Muller-Hinton agar, 37° C., 20 hours
In short: as §1

[11] = system: Staphylococcus aureus ATCC 10537; details: ATCC10537; Staphylococcus aureus ATCC 10537; Muller-Hinton agar, 37° C., 20 hours; read-out: Antibacterial Activity MIC
In short: as §1

[12] = system: Proteus vulgaris ATCC 6059; details: ATCC6059; Proteus vulgaris ATCC 6059; Muller-Hinton agar, 37° C., 20 hours; read-out: Antibacterial Activity MIC
In short: as §1

[13] = system: Morganella morganii ATCC 8076h; details: ATCC8076H, Muller-Hinton agar, 37° C., 20 hours
In short: as §1

[14] = system: Salmonella typhimurium ATCC 14028; details: Salmonella enterica; Salmonella typhimurium ATCC 14028; Muller-Hinton agar, 37° C., 20 hours; read-out: Antibacterial Activity MIC
In short: as §1

[15] = system: Bacillus megaterium ATCC 9885; details: Priestia megaterium, ATCC9885; Bacillus megaterium ATCC 9885; Muller-Hinton agar, 37° C., 20 hours; read-out: Antibacterial Activity MIC
In short: as §1

[16] = system: Streptococcus faecalis ATCC 29212; details: Enterococcus faecalis, ATCC29212; Streptococcus faecalis ATCC 29212; Muller-Hinton agar, 37° C., 20 hours; read-out: Antibacterial Activity MIC
In short: as §1

[17] = system: Staphylococcus epidermidis ATCC 12228; details: ATCC12228; Staphylococcus epidermidis ATCC 12228; Muller-Hinton agar, 37° C., 20 hours; read-out: Antibacterial Activity MIC
In short: as §1

[18] = system: Pseudomonas aeruginosa ATCC 10145; details: ATCC10145; Pseudomonas aeruginosa ATCC 10145; Muller-Hinton agar, 37° C., 20 hours; read-out: Antibacterial Activity MIC
In short: as §1

[19] = system: Micrococcus luteus ATCC 9341; details: ATCC9341; Micrococcus luteus ATCC 9341; Muller-Hinton agar, 37° C., 20 hours; read-out: Antibacterial Activity MIC
In short: as §1

[20] = system: Shigella flexneri ATCC 11836; details: ATCC11836, Muller-Hinton agar, 37° C., 20 hours
In short: as §1

[21] = system: Pseudomonas aeruginosa ATCC 27853; details: ATCC27853; Pseudomonas aeruginosa ATCC 27853; Muller-Hinton agar, 37° C., 20 hours; read-out: Antibacterial Activity MIC
In short: as §1

[22] = system: Proteus mirabilis ATCC 25933; details: ATCC25933; Proteus mirabilis ATCC 25933; Muller-Hinton agar, 37° C., 20 hours; read-out: Antibacterial Activity MIC
In short: as §1

[23] = system: Staphylococcus aureus ATCC 6538p; details: ATCC6538P; Staphylococcus aureus ATCC 6538p; Muller-Hinton agar, 37° C., 20 hours; read-out: Antibacterial Activity MIC
In short: as §1

[24] = system: Klebsiella pneumoniae ATCC 10031; details: ATCC10031; Klebsiella pneumoniae ATCC 10031; Muller-Hinton agar, 37° C., 20 hours; read-out: Antibacterial Activity MIC
In short: as §1

[25] = system: Enterobacter cloacae ATCC 27508; details: ATCC27508; Enterobacter cloacae ATCC 27508; Muller-Hinton agar, 37° C., 20 hours; read-out: Antibacterial Activity MIC
In short: as §1

SMILES | MIC [1] | MIC [2] | MIC [3] | MIC [4] | MIC [5] | MIC [6] | MIC [7] | MIC [8] | MIC [9] | MIC [10] | MIC [11] | MIC [12] | MIC [13] | MIC [14] | MIC [15] | MIC [16] | MIC [17] | MIC [18] | MIC [19] | MIC [20] | other results
CC[n+]1c(SCC2=C(C(=O)[O-])N3C(=O)[C@@H](NC(=O)/C(=N\OC)c4csc(N)n4)[C@H]3SC2)cc(N)nc1N [Compound I-8, (6R,7R)-7-[(Z)-2-(2-aminothiazol-4-yl)-2-(methoxyimino)acetamido]-3-(2,6-diamino-3-ethylpyrimidinium-4-yl)thiomethyl-3-cephem-4-carboxylate] | 0.063 mg/L (≈ 0.111 µM) | 0.5 mg/L (≈ 0.884 µM) | 0.5 mg/L (≈ 0.884 µM) | 0.063 mg/L (≈ 0.111 µM) | 64 mg/L (≈ 113 µM) | 0.5 mg/L (≈ 0.884 µM) | 2 mg/L (≈ 3.54 µM) | 8 mg/L (≈ 14.1 µM) | 0.13 mg/L (≈ 0.23 µM) | ≤ 0.008 mg/L | 1 mg/L (≈ 1.77 µM) | 0.063 mg/L (≈ 0.111 µM) | 0.016 mg/L (≈ 0.0283 µM) | 0.5 mg/L (≈ 0.884 µM) | 0.13 mg/L (≈ 0.23 µM) | > 128 mg/L | 0.5 mg/L (≈ 0.884 µM) | 32 mg/L (≈ 56.6 µM) | 0.063 mg/L (≈ 0.111 µM) | 0.063 mg/L (≈ 0.111 µM) | MIC [21]: 16 mg/L (≈ 28.3 µM); MIC [22]: 0.031 mg/L (≈ 0.0548 µM); MIC [23]: 2 mg/L (≈ 3.54 µM); MIC [24]: 0.016 mg/L (≈ 0.0283 µM); MIC [25]: 0.016 mg/L (≈ 0.0283 µM)
CCO/N=C(\C(=O)N[C@@H]1C(=O)N2C(C(=O)[O-])=C(CSc3cc(N)[n+](CC)c(N)n3)CS[C@H]12)c1nsc(N)n1 [Compound I-11, (6R,7R)-7-[(Z)-2-(5-amino-1,2,4-thiadiazol-3-yl)-2-(ethoxyimino)acetamido]-3-(2,6-diamino-1-ethylpyrimidinium-4-yl)thiomethyl-3-cephem-4-carboxylate] | 0.13 mg/L (≈ 0.224 µM) | 0.13 mg/L (≈ 0.224 µM) | 0.25 mg/L (≈ 0.431 µM) | 0.25 mg/L (≈ 0.431 µM) | 128 mg/L (≈ 220 µM) | 0.13 mg/L (≈ 0.224 µM) | 0.5 mg/L (≈ 0.861 µM) | 4 mg/L (≈ 6.89 µM) | 0.063 mg/L (≈ 0.108 µM) | ≤ 0.008 mg/L | 0.5 mg/L (≈ 0.861 µM) | 0.5 mg/L (≈ 0.861 µM) | 0.016 mg/L (≈ 0.0276 µM) | 0.063 mg/L (≈ 0.108 µM) | 0.13 mg/L (≈ 0.224 µM) | 8 mg/L (≈ 13.8 µM) | 0.25 mg/L (≈ 0.431 µM) | 2 mg/L (≈ 3.44 µM) | 0.016 mg/L (≈ 0.0276 µM) | 0.031 mg/L (≈ 0.0534 µM) | MIC [21]: 1 mg/L (≈ 1.72 µM); MIC [22]: 0.5 mg/L (≈ 0.861 µM); MIC [23]: 0.5 mg/L (≈ 0.861 µM); MIC [24]: ≤ 0.008 mg/L; MIC [25]: ≤ 0.008 mg/L
